Test results taken from patent US11293023B2, “Tunable endogenous protein degradation” (Dana-Farber Cancer Institute, Inc., priority 2015, dated 2022).

Assays:
Assay type in all cases: cell-based
FKBP*-KRASG12V = experiment: Immunoblot of FKBP*-KRASG12V (dTAG-KRAS) degradation in NIH3T3 cells
Protocol: (§1) FIG. 11 is an immunoblot of NIH3T3 cells expressing KRASG12V allele fused to FKBP* in the N-terminus or C-terminus. Cells were treated with 500 nM dFKBP7 for the indicated time. Cells were harvested and immunoblotted to measure degradation of FKBP*-KRASG12V and downstream surrogates of KRAS signaling (e.g. pMEK and pAKT).
(§2) FIG. 12 is an immunoblot of NIH3T3 cells expressing FKBP* fused to the N-terminus of KRASG12V treated with 1 uM of the indicated dFKBP heterobifunctional compounds for 24 hours. Cells were harvested and immunoblotted to measure degradation of FKBP*-KRASG12V and downstream surrogates of KRAS signaling (e.g. pMEK and pAKT).
as §2, with “FIG. 13” for “FIG. 12”, “with” for “with 1 uM of”, “indicated concentrations of dFKBP13” for “indicated dFKBP heterobifunctional compounds”
(§3) FIG. 14 is an immunoblot of NIH3T3 cells expressing FKBP* fused to the N-terminus of KRASG12V treated with 1 uM dFKBP13 for the indicated time. Cells were harvested and immunoblotted to measure degradation of FKBP*-KRASG12V and downstream surrogates of KRAS signaling (e.g. pMEK and pAKT).
FIG. 15 is an immunoblot of NIH3T3 cells expressing dTAG-KRASG12V pretreated with 1 uM Carfilzomib (proteasome inhibitor), 0.5 uM MLN4924 (neddylation inhibitor), and 10 uM Lenalidomide (CRBN binding ligand) for two hours prior to a 4 hour treatment with dFKBP13.
(§4) Cells were treated with 500 nM dFKBP7 for the indicated time. Cells were harvested and immunoblotted to measure degradation of FKBP*-KRAS and downstream surrogates of KRAS signaling (e.g. pMEK and pAKT).
(§5) In an effort to identify the best performing dFKBP molecule, dTAG-KRAS degradation was profiled across a series of dFKBP molecules. Western blotting of NIH3T3 cells expressing dTAG-KRASG12V were treated with 1 μM of the indicated dFKBP heterobifunctional compounds for 24 hours. Cells were harvested and immunoblotted to measure degradation of FKBP*-KRAS and downstream surrogates of KRAS signaling (e.g. pMEK and pAKT).
(§6) Western blotting of NIH3T3 cells expressing FKBP* fused to the N-terminus of KRAS treated with the indicated concentrations of dFKBP13 for 24 hours. Cells were harvested and immunoblotted to measure degradation of FKBP*-KRAS and downstream surrogates of KRAS signaling (e.g. pMEK and pAKT).
(§7) To evaluate the kinetic control of targeted degradation of dTAG-KRAS, dFKBP13 was administered by increased duration. Western blotting of NIH3T3 cells expressing FKBP* fused to the N-terminus of KRAS treated with 1 μM dFKBP13 for the indicated time. Cells were harvested and immunoblotted to measure degradation of FKBP*-KRAS and downstream surrogates of KRAS signaling (e.g. pMEK and pAKT).
NIH3T3 cells (CRBN-WT) were engineered to express dTAG-KRASG12V. Cells were pretreated with 1 uM Carfilzomib (proteasome inhibitor), 0.5 uM MLN4924 (neddylation inhibitor), and 10 uM Lenalidomide (CRBN binding ligand) for two hours prior to a 4 hour treatment with dFKBP13. Lysates were prepared and western immunoblot analysis performed. […] Pre-treatment with the NAE1 inhibitor MLN4924 rescued dTAG-KRASG12V expression establishing dependence on CRL activity, as expected for cullin-based ubiquitin ligases that require neddylation for processive E3 ligase activity. Pre-treatment with excess Lenalidomide abolished dFKBP13-dependent dTAG-KRASG12V degradation, confirming the requirement of CRBN engagement for degradation.

[1] = biological target: T1, FKBP* (FKBP12 F36V), HA-tagged (Homo sapiens, UniProt P62942, F37V); experiment: Immunoblot of FKBP* degradation in 293FT cells (CRBN-WT or CRBN−/−)
T1 construct: expressed in transfected cells; host or cells: 293FT cells (CRBN-WT or CRBN-/-)
T1 sequence (P62942 2-108 F37V limits assumed): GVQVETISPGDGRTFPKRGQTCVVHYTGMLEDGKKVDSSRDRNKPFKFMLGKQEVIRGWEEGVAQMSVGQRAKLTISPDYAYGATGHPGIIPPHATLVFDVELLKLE
Protocol: 293FT cells (CRBN-WT or CRBN−/−) expressing either HA-tagged FKBP12WT or FKBP* were treated with indicated concentrations of dFKBP7 for 4 hours.
Isogenic 293FT cells (CRBN-WT or CRBN−/−) expressing either FKBP12WT or FKBP* were treated with 100 nM of either dFKBP7 or dFKBP13 for 4 hours.
Isogenic 293FT cells (CRBN-WT or CRBN−/−) expressing HA-tagged FKBP* were treated with the indicated dose of dFKBP13 for 4 hours.
(§8) 293FT cells (CRBN-WT) expressing FKBP* were pretreated with 1 uM Carfilzomib (proteasome inhibitor), 0.5 uM MLN4924 (neddylation inhibitor), and 10 uM Lenalidomide (CRBN binding ligand) for two hours prior to a 4 hour treatment with dFKBP13.
The dTAG is predicated on the selectivity of FKBP* specific ligands over endogenous, wild type FKBP. In 293T cells expressing wild type FKBP12 or FKBP*, dFKBP7 induces targeted degradation only in FKBP* expressing cells. […] 293FT cells (CRBN-WT or CRBN−/−) expressing either HA-tagged FKBP12WT or FKBP* were treated with indicated concentrations of dFKBP7 for 4 hours.
In 293T cells expressing wild type FKBP12 or FKBP*, treatment with dFKBP7 and dFKBP13 induces targeted degradation only in FKBP* expressing cells. Isogenic 293FT cells (CRBN-WT or CRBN−/−) were engineered to expressed either FKBP12WT or FKBP*. Cells were treated with 100 nM of either dFKBP7 or dFKBP13 for 4 hours before lysates were prepared for western immunoblot analysis.
In an effort to define the optimal concentration of dFKB13 heterobifunctional compound to induce degradation of FKBP*, degradation was measured upon treatment with increasing concentrations of dFKBP13. Isogenic 293FT cells (CRBN-WT or CRBN−/−) were engineered to expressed HA-tagged FKBP*. Cells were treated with the indicated dose of dFKBP13 for 4 hours before lysates were prepared for western immunoblot analysis.
as §8, with “were engineered to express FKBP*. Cells” for “expressing FKBP*”, “dFKBP13. Lysates were prepared and western immunoblot analysis performed.” for “dFKBP13.”

[2] = tested on: KRAS signaling (pMEK and pAKT); experiment: Immunoblot of downstream surrogates of KRAS signaling in NIH3T3 cells expressing dTAG-KRAS; conditions: NIH3T3 FKBP*-KRASG12V, 1 uM, 24 hours
Protocol: as §1, §2
as §3, with “13” for “14”, “the indicated concentrations of” for “1 uM”, “24 hours.” for “the indicated time.”
as §3, §4, §5, §6, §7
(§9) The dFKBP13 heterobifunctional compound potently degrades dTAG-KRAS mutant alleles. NIH3T3 cells were engineered to express KRAS alleles either WT or mutant forms of amino acid glycine 12 (G12C, G12D, and G12V). Western blotting of NIH3T3 cells expressing dTAG fused to the N-terminus of KRAS alleles were treated with 1 uM of dFKBP13 for 24 hours. Cells were harvested and immunoblotted to measure degradation of dTAG-KRAS and downstream surrogates of KRAS signaling (e.g. pMEK and pAKT).
as §9, with “express” for “express KRAS alleles”, “KRAS alleles (G13D, Q61L,” for “forms of amino acid glycine 12 (G12C, G12D,”, “Q61R).” for “G12V).”

[3] = 1 uM Carfilzomib, two hours prior to a 4 hour treatment with dFKBP13
[4] = 10 uM Lenalidomide, two hours prior to a 4 hour treatment with dFKBP13
[5] = 0.5 uM MLN4924, two hours prior to a 4 hour treatment with dFKBP13

SMILES: CC(C)C[C@H](NC(=O)[C@H](CCc1ccccc1)NC(=O)CN1CCOCC1)C(=O)N[C@@H](Cc1ccccc1)C(=O)N[C@@H](CC(C)C)C(=O)[C@@]1(C)CO1 [Carfilzomib, reference compound]
- effect of pretreatment on dFKBP13-induced degradation of dTAG-KRASG12V (FKBP*-KRASG12V; [3]): rescued
- effect of pretreatment on dFKBP13-induced degradation of HA-tagged FKBP* [1, 3]: rescued

SMILES: Nc1cccc2c1CN(C1CCC(=O)NC1=O)C2=O (centres unmarked) [Lenalidomide, reference compound]
- effect of pretreatment on dFKBP13-induced degradation of dTAG-KRASG12V (FKBP*-KRASG12V; [4]): abolished
- effect of pretreatment on dFKBP13-induced degradation of HA-tagged FKBP* [1, 4]: abolished

SMILES: NS(=O)(=O)OC[C@@H]1C[C@@H](n2ccc3c(N[C@H]4CCc5ccccc54)ncnc32)C[C@@H]1O [MLN4924, reference compound]
- effect of pretreatment on dFKBP13-induced degradation of dTAG-KRASG12V (FKBP*-KRASG12V; [5]): rescued
- effect of pretreatment on dFKBP13-induced degradation of HA-tagged FKBP* [1, 5]: rescued

SMILES: CC[C@H](C(=O)N1CCCC[C@H]1C(=O)O[C@H](CCc1ccc(OC)c(OC)c1)c1cccc(OCC(=O)NCCCCCCCCNC(=O)COc2cccc3c2C(=O)N(C2CCC(=O)NC2=O)C3=O)c1)c1cc(OC)c(OC)c(OC)c1 (some centres unmarked) [dFKBP9]
- downstream signaling (pMEK and pAKT) [2]: inhibition of downstream signaling
- degradation of FKBP*-KRASG12V (FKBP*-KRASG12V; NIH3T3, 1 uM, 24 hours): potent degradation
